Reference: ChEMBL document CHEMBL4177723, “Histone H3 peptides incorporating modified lysine residues as lysine-specific demethylase 1 inhibitors” (Bioorg Med Chem Lett, 2018)

What was measured:
[1] = target: T1, Amine oxidase [flavin-containing] A (Homo sapiens, UniProt P21397)
T1 sequence (P21397 whole entry): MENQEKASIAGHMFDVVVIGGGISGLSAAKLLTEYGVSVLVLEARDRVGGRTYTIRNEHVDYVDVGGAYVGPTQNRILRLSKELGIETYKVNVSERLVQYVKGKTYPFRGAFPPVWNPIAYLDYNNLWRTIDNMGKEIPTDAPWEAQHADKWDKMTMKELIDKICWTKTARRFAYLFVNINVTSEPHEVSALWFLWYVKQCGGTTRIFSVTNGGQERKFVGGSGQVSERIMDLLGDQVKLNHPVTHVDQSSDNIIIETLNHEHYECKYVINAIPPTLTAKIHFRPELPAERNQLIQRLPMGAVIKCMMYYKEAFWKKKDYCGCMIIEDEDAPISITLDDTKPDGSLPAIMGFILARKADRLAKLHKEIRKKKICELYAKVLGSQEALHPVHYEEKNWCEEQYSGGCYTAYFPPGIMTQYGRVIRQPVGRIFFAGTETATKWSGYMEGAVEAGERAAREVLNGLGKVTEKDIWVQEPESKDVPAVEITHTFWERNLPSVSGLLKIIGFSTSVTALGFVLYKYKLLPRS

[2] = target: Lysine-specific histone demethylase 1A (Homo sapiens, UniProt O60341)
[3] = target: T2, Amine oxidase [flavin-containing] B (Homo sapiens, UniProt P27338)
T2 sequence (P27338 whole entry): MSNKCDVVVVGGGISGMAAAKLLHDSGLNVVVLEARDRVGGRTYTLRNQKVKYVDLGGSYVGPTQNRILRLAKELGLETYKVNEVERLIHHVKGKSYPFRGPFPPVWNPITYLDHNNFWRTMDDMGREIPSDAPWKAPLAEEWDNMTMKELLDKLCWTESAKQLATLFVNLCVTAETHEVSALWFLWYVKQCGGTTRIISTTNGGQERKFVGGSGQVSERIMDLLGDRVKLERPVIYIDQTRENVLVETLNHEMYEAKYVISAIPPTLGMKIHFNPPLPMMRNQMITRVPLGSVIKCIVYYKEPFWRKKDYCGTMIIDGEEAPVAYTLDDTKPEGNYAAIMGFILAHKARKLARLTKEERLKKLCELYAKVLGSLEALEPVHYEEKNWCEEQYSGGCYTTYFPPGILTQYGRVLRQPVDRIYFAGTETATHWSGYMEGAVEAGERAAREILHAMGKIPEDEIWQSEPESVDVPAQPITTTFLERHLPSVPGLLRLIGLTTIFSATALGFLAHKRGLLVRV

SMILES: C[C@H](N)C(=O)N[C@@H](CCCNC(=N)N)C(=O)N[C@H](C(=O)N[C@@H](CCCCN[C@@H]1C[C@H]1c1ccccc1)C(=O)N[C@@H](CCC(N)=O)C(=O)N[C@H](C(=O)N[C@@H](C)C(=O)N[C@@H](CCCNC(=N)N)C(=O)N[C@@H](CCCCN)C(=O)N[C@@H](CO)C(=O)N[C@H](C(=O)O)[C@@H](C)O)[C@@H](C)O)[C@@H](C)O
- IC50 [1]: > 10 µM
- IC50 [2]: 0.154 µM
- IC50 [3]: > 10 µM
